Measured values reported in patent publication US8822449B2, “Substituted aminoindanes and analogs thereof, and the pharmaceutical use thereof” (Sanofi, priority 2008, dated 2014).

Molecular target: T1, sodium-proton exchanger of subtype 3 (NHE3) (Homo sapiens, UniProt P48764)
T1 construct: expressed in transfected cells
T1 sequence (P48764 26-834): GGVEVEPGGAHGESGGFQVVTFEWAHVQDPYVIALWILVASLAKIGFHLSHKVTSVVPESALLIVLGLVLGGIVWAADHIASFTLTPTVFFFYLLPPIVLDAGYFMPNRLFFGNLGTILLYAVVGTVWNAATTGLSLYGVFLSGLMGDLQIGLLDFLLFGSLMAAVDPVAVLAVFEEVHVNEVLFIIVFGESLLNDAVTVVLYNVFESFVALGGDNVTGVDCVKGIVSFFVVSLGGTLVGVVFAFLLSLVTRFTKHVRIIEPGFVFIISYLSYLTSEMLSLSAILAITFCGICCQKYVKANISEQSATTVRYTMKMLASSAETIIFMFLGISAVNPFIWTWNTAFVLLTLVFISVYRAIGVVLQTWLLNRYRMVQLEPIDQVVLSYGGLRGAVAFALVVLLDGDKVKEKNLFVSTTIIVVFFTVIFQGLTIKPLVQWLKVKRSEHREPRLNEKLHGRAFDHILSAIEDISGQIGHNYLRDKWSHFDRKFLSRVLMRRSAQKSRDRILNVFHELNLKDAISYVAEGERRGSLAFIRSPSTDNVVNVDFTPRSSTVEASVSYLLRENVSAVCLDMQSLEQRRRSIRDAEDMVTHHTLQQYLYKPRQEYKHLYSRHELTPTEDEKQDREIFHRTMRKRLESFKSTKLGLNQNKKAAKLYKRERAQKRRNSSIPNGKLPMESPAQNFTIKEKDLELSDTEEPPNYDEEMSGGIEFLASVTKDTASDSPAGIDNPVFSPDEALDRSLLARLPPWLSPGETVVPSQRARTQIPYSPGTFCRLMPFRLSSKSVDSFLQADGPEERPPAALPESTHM
Assay: Recovery of intracellular pH (pHi) after acidification in LAP1 cells stably expressing NHE3 (BCECF fluorescence, FLIPR)
Type: cell-based
Conditions: LAP1 cells stably expressing NHE3; pH recovery after acidification; range 1 is % inhibition at 10 μM; read-out: Activity range (inhibitory effect on NHE3)

Structure (SMILES) | IC50 [nM] | inhibition at 10 µM [%]
CS(=O)(=O)c1ccc(O[C@H]2c3cc(Cl)cc(Cl)c3C[C@@H]2N2CC[C@@H](N3CCCC3)C2)cc1 [Example 99, (R)-1′-[trans-(1S,2S)-4,6-dichloro-1-(4-methanesulfonylphenoxy)indan-2-yl]-[1,3′]bipyrrolidinyl] | < 1000 | –
CC(=O)Nc1cccc(O[C@H]2c3cc(Cl)cc(Cl)c3C[C@@H]2N2CC[C@@H](CO)C2)c1 [Example 695, N-{3-[trans-(1S,2S)-4,6-dichloro-2-((R)-3-hydroxymethylpyrrolidin-1-yl)indan-1-yloxy]phenyl}acetamide] | 1000 to 10000 | –
N#Cc1ccc(O[C@H]2c3ccccc3C[C@@H]2N2CCCC2)cc1 (racemic) [Example 468, 4-(rac-trans-(1,2)-2-pyrrolidin-1-ylindan-1-yloxy)benzonitrile] | 1000 to 10000 | –
CS(=O)(=O)c1ccccc1O[C@H]1c2cc(Cl)cc(Cl)c2C[C@@H]1N1CCC[C@@H](N)C1 [Example 25, (R)-1-[(1S,2S)-4,6-dichloro-1-(2-methanesulfonylphenoxy)indan-2-yl]piperidin-3-ylamine] | < 1000 | –
Cc1ccc(O[C@H]2c3ccccc3CC[C@@H]2N2CCC[C@@H](N)C2)c(Br)c1 (racemic) [Example 35, (R)-1-[rac-trans-(1,2)-1-(2-bromo-4-methylphenoxy)-1,2,3,4-tetrahydronaphthalen-2-yl]piperidin-3-ylamine] | – | 20 to 50
O=C(O)c1ccc(O[C@H]2c3ccccc3C[C@@H]2CN2CCCC2)cc1Cl (racemic) [Example 390, 2-chloro-4-(2-pyrrolidin-1-ylmethylindan-1-yloxy)benzoic acid] | – | 20 to 50
Cn1ccn(-c2ccc(Cl)c(O[C@H]3c4cc(Cl)cc(F)c4C[C@@H]3N3CC[C@@H](O)C3)c2)c1=O [Example 339, 1-{4-chloro-3-[(1S,2S)-6-chloro-4-fluoro-2-((R)-3-hydroxypyrrolidin-1-yl)indan-1-yloxy]phenyl}-3-methyl-1,3-dihydroimidazol-2-one] | < 1000 | –
N[C@@H]1CCCN([C@@H]2Cc3ccccc3[C@H]2Oc2ccc(S(N)(=O)=O)c(Cl)c2Cl)C1 (racemic) [Example 518, 4-[rac-trans-(1,2)-2-((R)-3-aminopiperidin-1-yl)indan-1-yloxy]-2,3-dichlorobenzenesulfonamide] | < 1000 | –
CC(=O)Nc1cccc(O[C@H]2c3ccc(Cl)cc3C[C@@H]2N2CCCC2)c1 (racemic) [Example 655, N-[3-(rac-trans-(1,2)-5-chloro-2-pyrrolidin-1-ylindan-1-yloxy)phenyl]acetamide] | 1000 to 10000 | –
Fc1ccc(O[C@@H]2c3ccccc3C[C@H]2N2C[C@H]3CNC[C@H]3C2)c(F)c1 (racemic) [Example 9, 2-[rac-trans-(1,2)-1-(2,4-difluorophenoxy)indan-2-yl]octahydropyrrolo[3,4-c]pyrrole] | 1000 to 10000 | –
CS(=O)(=O)c1ccc(O[C@H]2c3cc(Cl)cc(Cl)c3C[C@@H]2NC2CCCC2)cc1 [Example 747, Cyclopentyl-[trans-(1S,2S)-4,6-dichloro-1-(4-methanesulfonyl-phenoxy)-indan-2-yl]-amine] | 1000 to 10000 | –
O=C1CCc2c(cccc2O[C@H]2c3cc(Cl)cc(Cl)c3C[C@@H]2N2CC[C@@H](O)C2)N1 [Example 574, 5-[(1S,2S)-4,6-dichloro-2-((R)-3-hydroxypyrrolidin-1-yl)indan-1-yloxy]-3,4-dihydro-1H-quinolin-2-one] | 1000 to 10000 | –
NCC1CCN([C@@H]2Cc3ccccc3[C@H]2Oc2ccc3c(c2)OCO3)C1 (mixture of isomers) [Example 621, C-{1-[rac-trans-(1,2)-1-(benzo[1,3]dioxol-5-yloxy)indan-2-yl]pyrrolidin-3-yl}methylamine] | 1000 to 10000 | –
N[C@@H]1CCCN([C@H]2Cc3c(Cl)cc(Cl)cc3[C@@H]2Oc2ccc(S(N)(=O)=O)c(Cl)c2Cl)C1 [Example 550, 4-[trans-(1S,2S)-2-((R)-3-aminopiperidin-1-yl)-4,6-dichloroindan-1-yloxy]-2,3-dichlorobenzenesulfonamide] | < 1000 | –
NC1CCN([C@@H]2Cc3ccccc3[C@H]2Oc2ccc(Br)cc2-c2cc[nH]n2)CC1 (racemic) [Example 343, 1-{rac-trans-(1,2)-1-[4-bromo-2-(1H-pyrazol-3-yl)phenoxy]indan-2-yl}piperidin-4-ylamine] | 1000 to 10000 | –
O=C1OCCN1c1ccc(O[C@H]2c3cc(Cl)cc(Cl)c3C[C@@H]2N2CC[C@@H](O)C2)cc1 [Example 429, 3-{4-[trans-(1S,2S)-4,6-dichloro-2-((R)-3-hydroxypyrrolidin-1-yl)indan-1-yloxy]phenyl}oxazolidin-2-one] | 1000 to 10000 | –

Structure (SMILES) | IC50 [nM] | inhibition at 10 µM [%]
CN(C)C[C@@H]1Cc2ccccc2[C@H]1Oc1ccc(S(C)(=O)=O)cc1 (racemic) [Example 244] | – | 20 to 50
CC(=O)Nc1cccc(O[C@H]2c3ccccc3CC[C@@H]2N2CCC[C@@H](N)C2)c1 (racemic) [Example 676, N-{3-[rac-trans-(1,2)-2-((R)-3-aminopiperidin-1-yl)-1,2,3,4-tetrahydronaphthalen-1-yloxy]phenyl}acetamide] | 1000 to 10000 | –
COC(=O)c1ccc(O[C@H]2c3ccccc3CC[C@@H]2N2CCC[C@H](N)C2)c(Cl)c1 (racemic) [Example 531, 4-[rac-trans-(1,2)-2-((S)-3-aminopiperidin-1-yl)-1,2,3,4-tetrahydronaphthalen-1-yloxy]-3-chlorobenzoic acid methyl ester] | – | 20 to 50
N#Cc1ccc(O[C@H]2c3ccccc3CC[C@@H]2N2CCC[C@@H](N)C2)c(F)c1 (racemic) [Example 515, 4-[rac-trans-(1,2)-2-((R)-3-aminopiperidin-1-yl)-1,2,3,4-tetrahydronaphthalen-1-yloxy]-3-fluorobenzonitrile] | 1000 to 10000 | –
CS(=O)(=O)c1ccc(O[C@H]2c3cc(Cl)cc(F)c3C[C@@H]2N2CC[C@@H](O)C2)cc1 [Example 108, (R)-1-[trans-(1S,2S)-6-chloro-4-fluoro-1-(4-methanesulfonylphenoxy)indan-2-yl]pyrrolidin-3-ol] | 1000 to 10000 | –
CS(=O)(=O)c1ccc(O[C@H]2c3cc(Cl)cc(Cl)c3C[C@@H]2N2C[C@H]3CNC[C@H]3C2)cc1 [Example 3, 2-[trans-(1S,2S)-4,6-dichloro-1-(4-methanesulfonylphenoxy)indan-2-yl]octahydropyrrolo[3,4-c]pyrrole] | < 1000 | –
CCc1ccc(O[C@@H]2c3ccccc3C[C@H]2N2CCC(N)C2)c(C(C)(C)C)c1 (mixture of isomers) [Example 267, 1-[rac-trans-(1,2)-1-(2-tert-butyl-4-ethylphenoxy)indan-2-yl]pyrrolidin-3-ylamine] | 1000 to 10000 | –
Nc1ccc2c(O[C@H]3c4ccccc4CC[C@@H]3N3CCOCC3)cccc2c1 (racemic) [Example 569, 5-(rac-trans-(1,2)-2-morpholin-4-yl-1,2,3,4-tetrahydronaphthalen-1-yloxy)naphthalen-2-ylamine] | – | 20 to 50
NS(=O)(=O)c1ccc(O[C@H]2c3ccccc3C[C@@H]2N2CCCCCC2)cc1 (racemic) [Example 464, 4-(rac-trans-(1,2)-2-azepan-1-ylindan-1-yloxy)benzenesulfonamide] | < 1000 | –
Cc1c(Cl)cccc1O[C@@H]1c2ccccc2C[C@H]1N1CCC(CN)C1 (mixture of isomers) [Example 611, C-{1-[rac-trans-(1,2)-1-(3-chloro-2-methylphenoxy)indan-2-yl]pyrrolidin-3-yl}methylamine] | 1000 to 10000 | –
CN1CCN(c2cccc(O[C@H]3c4cc(Cl)cc(F)c4C[C@@H]3N3CC[C@@H](O)C3)c2)C1=O [Example 320, 1-{3-[trans-(1S,2S)-6-chloro-4-fluoro-2-((R)-3-hydroxypyrrolidin-1-yl)indan-1-yloxy]phenyl}-3-methylimidazolidin-2-one] | 1000 to 10000 | –
O=C1CCCN1c1ccc(O[C@H]2c3cc(Cl)cc(Cl)c3C[C@@H]2N2CCC2)cc1 [Example 259, 1-[4-((1S,2S)-2-azetidin-1-yl-4,6-dichloroindan-1-yloxy)phenyl]pyrrolidin-2-one] | – | 20 to 50
NCC1CCN([C@@H]2Cc3ccccc3[C@H]2Oc2ccc3c(c2)OCO3)CC1 (racemic) [Example 620, C-{1-[rac-trans-(1,2)-1-(benzo[1,3]dioxol-5-yloxy)indan-2-yl]piperidin-4-yl}methylamine] | 1000 to 10000 | –
NCC1CCN([C@@H]2Cc3ccccc3[C@H]2Oc2ccc(C(N)=O)cc2)CC1 (racemic) [Example 548, 4-[rac-trans-(1,2)-2-(4-aminomethylpiperidin-1-yl)indan-1-yloxy]benzamide] | 1000 to 10000 | –
CS(=O)(=O)c1ccccc1O[C@H]1c2cc(Cl)cc(Cl)c2C[C@@H]1N1CCC1 [Example 245, 1-[(1S,2S)-4,6-dichloro-1-(2-methanesulfonylphenoxy)indan-2-yl]azetidine] | – | 20 to 50
